The source made the active and inactive calls. The calls are words filed in the database; no cut-off is given here.
Assays:
Mus musculus [1] = test: Effect on mortality of BALB/c mouse inoculated with Cowpox virus at 30 mg/kg after 48 hrs of viral infection, po once daily for 14 days relative to control; format: functional
Mus musculus [2] = test: Effect on mortality of BALB/c mouse inoculated with Cowpox virus at 10 mg/kg after 48 hrs of viral infection, po once daily for 14 days relative to control; format: functional
Mus musculus [3] = test: Effect on mortality of BALB/c mouse inoculated with Cowpox virus at 100 mg/kg after 48 hrs of viral infection, po once daily for 14 days relative to control; format: functional
Mus musculus [4] = test: Effect on mortality of BALB/c mouse inoculated with Cowpox virus BR at 100 mg/kg after 24 hrs of viral infection, po once daily for 7 days relative to control; format: functional
Mus musculus [5] = test: Effect on mortality of BALB/c mouse inoculated with Cowpox virus BR at 100 mg/kg after 4 hrs of viral infection, po once daily for 10 days relative to control; format: functional
Mus musculus [6] = test: Effect on mortality of BALB/c mouse inoculated with Cowpox virus BR at 100 mg/kg after 24 hrs of viral infection, po once daily for 10 days relative to control; format: functional
Mus musculus [7] = test: Effect on mortality of BALB/c mouse inoculated with Vaccinia virus WR at 100 mg/kg after 4 hrs of viral infection, po once daily for 5 days relative to control; format: functional
Mus musculus [8] = test: Effect on mortality of BALB/c mouse inoculated with Vaccinia virus WR at 100 mg/kg after 24 hrs of viral infection, po once daily for 5 days relative to control; format: functional
Mus musculus [9] = test: Effect on mortality of BALB/c mouse inoculated with Vaccinia virus WR at 100 mg/kg after 4 hrs of viral infection, po once daily for 7 days relative to control; format: functional
Mus musculus [10] = test: Effect on mortality of BALB/c mouse inoculated with Vaccinia virus WR at 100 mg/kg after 24 hrs of viral infection, po once daily for 7 days relative to control; format: functional
Mus musculus [11] = test: Effect on mortality of BALB/c mouse inoculated with Vaccinia virus WR at 100 mg/kg after 4 hrs of viral infection, po once daily for 10 days relative to control; format: functional
Mus musculus [12] = test: Effect on mortality of BALB/c mouse inoculated with Vaccinia virus WR at 100 mg/kg after 24 hrs of viral infection, po once daily for 10 days relative to control; format: functional
Mus musculus [13] = test: Effect on mortality of BALB/c mouse inoculated with Vaccinia virus WR at 100 mg/kg after 4 hrs of viral infection, po once daily for 14 days relative to control; format: functional
Mus musculus [14] = test: Effect on mortality of BALB/c mouse inoculated with Vaccinia virus WR at 100 mg/kg after 24 hrs of viral infection, po once daily for 14 days relative to control; format: functional
Mus musculus [15] = test: Effect on mortality of BALB/c mouse inoculated with Cowpox virus at 100 mg/kg after 4 hrs of viral infection, po once daily for 14 days relative to control; format: functional
Mus musculus [16] = test: Effect on mortality of A/NCr mouse inoculated with ectromelia virus at 100 mg/kg after 0 hrs of viral infection, po once daily for 10 days relative control; format: functional
Mus musculus [17] = test: Effect on mortality of A/NCr mouse inoculated with ectromelia virus at 100 mg/kg after 72 hrs of viral infection, po once daily for 10 days relative control; format: functional
Mus musculus [18] = test: Effect on mortality of A/NCr mouse inoculated with ectromelia virus at 100 mg/kg after 48 hrs of viral infection, po once daily for 10 days relative control; format: functional
Mus musculus [19] = test: Effect on mortality of BALB/c mouse inoculated with Cowpox virus BR at 50 mg/kg after 24 hrs of viral infection, po for 9 days; format: functional, organism-based; parameters: dose 50 mg/kg
Mus musculus [20] = test: Effect on mortality of BALB/c mouse inoculated with Vaccinia virus WR at 50 mg/kg after 24 hrs of viral infection, po for 9 days; format: functional, organism-based; parameters: dose 50 mg/kg
[21] = Cytotoxicity against HFF cells; format: cell-based; conditions: human
[22] = Selectivity index, ratio of CC50 for HFF cells to EC50 for Vaccinia virus Copenhagen infected HFF cells; format: functional
Mus musculus [23] = test: Effect on mortality of BALB/c mouse inoculated with Cowpox virus BR at 100 mg/kg after 24 hrs of viral infection, po once daily for 5 days relative to control; format: functional
Mus musculus [24] = test: Effect on mortality of BALB/c mouse inoculated with Cowpox virus at 10 mg/kg after 24 hrs of viral infection, po once daily for 14 days relative to control; format: functional
Mus musculus [25] = test: Effect on mortality of BALB/c mouse inoculated with Cowpox virus at 10 mg/kg after 4 hrs of viral infection, po once daily for 14 days relative to control; format: functional
Mus musculus [26] = test: Effect on mortality of BALB/c mouse inoculated with Cowpox virus at 30 mg/kg after 24 hrs of viral infection, po once daily for 14 days relative to control; format: functional
Mus musculus [27] = test: Effect on mortality of BALB/c mouse inoculated with Cowpox virus at 100 mg/kg after 24 hrs of viral infection, po once daily for 14 days relative to control; format: functional
Ectromelia virus [28] = test: Reduction of Ectromelia virus replication in BALB/c mouse liver at 100 mg/kg, po once daily after 4 days; format: functional, organism-based; parameters: dose 100 mg/kg
Ectromelia virus [29] = test: Reduction of Ectromelia virus replication in BALB/c mouse lung at 100 mg/kg, po once daily after 4 days; format: functional, organism-based; parameters: dose 100 mg/kg
Ectromelia virus [30] = test: Reduction of Ectromelia virus replication in BALB/c mouse spleen at 100 mg/kg, po once daily after 4 days; format: functional, organism-based; parameters: dose 100 mg/kg
Ectromelia virus [31] = test: Reduction of Ectromelia virus replication in BALB/c mouse spleen at 100 mg/kg, po once daily after 8 days; format: functional, organism-based; parameters: dose 100 mg/kg
Cowpox virus = test: Reduction of Cowpox virus BR replication in BALB/c mouse spleen at 50 mg/kg after 24 hrs of viral infection, po for 9 days; format: functional, organism-based; parameters: dose 50 mg/kg
Vaccinia virus [32] = test: Reduction of Vaccinia virus WR replication in BALB/c mouse lung at 50 mg/kg after 24 hrs of viral infection, po for 9 days; format: functional, organism-based; parameters: dose 50 mg/kg; conditions: Orthopoxvirus vaccinia
Vaccinia virus [33] = test: Reduction of Vaccinia virus WR replication in BALB/c mouse liver at 50 mg/kg after 24 hrs of viral infection, po for 9 days; format: functional, organism-based; parameters: dose 50 mg/kg; conditions: Orthopoxvirus vaccinia
Ectromelia virus [34] = test: Reduction of Ectromelia virus replication in BALB/c mouse nasal wash at 100 mg/kg, po once daily after 6 days; format: functional, organism-based; parameters: dose 100 mg/kg
Ectromelia virus [35] = test: Reduction of Ectromelia virus replication in BALB/c mouse nasal wash at 100 mg/kg, po once daily after 8 days; format: functional, organism-based; parameters: dose 100 mg/kg
Mus musculus [36] = test: Effect on mortality of A/NCr mouse inoculated with 4.1 PFU ectromelia virus at 100 mg/kg after 4 hrs of viral infection, po twice daily for 14 days; format: functional
Mus musculus [37] = test: Effect on mortality of A/NCr mouse inoculated with 410 PFU ectromelia virus at 100 mg/kg after 24 hrs of viral infection, po twice daily for 14 days; format: functional
Mus musculus [38] = test: Effect on mortality of A/NCr mouse inoculated with 4100 PFU ectromelia virus at 100 mg/kg after 24 hrs of viral infection, po twice daily for 14 days; format: functional
Ectromelia virus [39] = test: Reduction of Ectromelia virus replication in BALB/c mouse trachea at 100 mg/kg, po once daily after 14 days; format: functional, organism-based; parameters: dose 100 mg/kg

Q: For O=C(NN1C(=O)[C@@H]2[C@@H]3C=C[C@@H]([C@H]4C[C@@H]34)[C@@H]2C1=O)c1ccc(C(F)(F)F)cc1 [TECOVIRIMAT], which Activity (Mus musculus [1]) is on record?
A: 20%

Q: What about the Activity (Mus musculus [2]) of the same compound?
A: 13%

Q: And the Activity (Mus musculus [3])?
A: 7%

Q: What about the Activity (Mus musculus [4]) of the same compound?
A: 40%

Q: What about the Activity (Mus musculus [5]) of the same compound?
A: 27%

Q: What about the Activity (Mus musculus [6]) of the same compound?
A: 40%

Q: What about the Activity (Mus musculus [7]) of the same compound?
A: 13%

Q: What about the Activity (Mus musculus [8]) of the same compound?
A: 7%

Q: What about the Activity (Mus musculus [9]) of the same compound?
A: 20%

Q: And the Activity (Mus musculus [10])?
A: 7%

Q: And the Activity (Mus musculus [11])?
A: 33%

Q: What about the Activity (Mus musculus [12]) of the same compound?
A: 0%

Q: And the Activity (Mus musculus [13])?
A: 20%

Q: And the Activity (Mus musculus [14])?
A: 7%

Q: What about the Activity (Mus musculus [15]) of the same compound?
A: 11%

Q: And the Activity (Mus musculus [16])?
A: 0%

Q: And the Activity (Mus musculus [17])?
A: 0%

Q: What about the Activity (Mus musculus [18]) of the same compound?
A: 0%

Q: And the Activity (Mus musculus [19])?
A: Active

Q: What about the Activity (Mus musculus [20]) of the same compound?
A: Active

Q: What about the CC50 [21] of the same compound?
A: > 100 µM

Q: And the “Ratio CC50/EC50” value [22]?
A: >2000

Q: What about the Activity (Mus musculus [23]) of the same compound?
A: 73%

Q: And the Activity (Mus musculus [24])?
A: 73%

Q: What about the Activity (Mus musculus [25]) of the same compound?
A: 92%

Q: What about the Activity (Mus musculus [26]) of the same compound?
A: 40%

Q: And the Activity (Mus musculus [27])?
A: 27%

Q: What about the Activity (Ectromelia virus [28]) of the same compound?
A: Active

Q: What about the Activity (Ectromelia virus [29]) of the same compound?
A: Active

Q: And the Activity (Ectromelia virus [30])?
A: Active

Q: What about the Activity (Ectromelia virus [31]) of the same compound?
A: Active

Q: What about the Activity (Cowpox virus) of the same compound?
A: Active

Q: What about the Activity (Vaccinia virus [32]) of the same compound?
A: Active

Q: And the Activity (Vaccinia virus [33])?
A: Active

Q: And the Activity (Ectromelia virus [34])?
A: inactive

Q: And the Activity (Ectromelia virus [35])?
A: inactive

Q: And the Activity (Mus musculus [36])?
A: 0%

Q: What about the Activity (Mus musculus [37]) of the same compound?
A: 0%

Q: What about the Activity (Mus musculus [38]) of the same compound?
A: 0%

Q: And the Activity (Ectromelia virus [39])?
A: Active
